# Data published in US8476274B2, “Biaryl spiroaminooxazoline analogues as Alpha2C adrenergic receptor modulators” (Merck Sharp & Dohme Corp., priority 2008, dated 2013).
# Molecular target: T1, α2C receptor (Homo sapiens, UniProt P18825)
# T1 sequence (P18825 1-462): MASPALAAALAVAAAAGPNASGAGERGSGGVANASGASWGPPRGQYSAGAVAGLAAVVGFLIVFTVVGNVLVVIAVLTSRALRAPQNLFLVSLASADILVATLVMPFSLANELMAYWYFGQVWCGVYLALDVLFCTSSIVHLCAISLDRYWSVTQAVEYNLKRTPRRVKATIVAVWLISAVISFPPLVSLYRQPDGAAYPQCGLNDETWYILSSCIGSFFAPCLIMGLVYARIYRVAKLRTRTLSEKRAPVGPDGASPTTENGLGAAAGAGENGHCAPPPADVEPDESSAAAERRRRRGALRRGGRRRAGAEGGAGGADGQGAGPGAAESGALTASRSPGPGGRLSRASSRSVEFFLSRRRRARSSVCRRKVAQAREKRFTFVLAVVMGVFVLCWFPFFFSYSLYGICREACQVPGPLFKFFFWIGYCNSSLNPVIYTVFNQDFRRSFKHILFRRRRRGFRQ
# Assay: binding inhibition (Ki) at the α2C receptor
# Conditions: compounds classed as α2C antagonists; read-out: Ki at the α2C receptor subtype
# Method: A compound is defined to be an antagonist of the alpha-2C receptor if the compounds's efficacy at the α2C receptor is <30% Emax (GTPγS assay) and the binding inhibition of at the α2C receptor (Ki) is <500 nM, preferably <200 nM, and most preferably <20 nM.
# Efficacy agonist activity values (Emax, GTPγS assay) for α2A and α2C were determined by following the general procedure detailed by Umland et. al (“Receptor reserve analysis of the human α2c-adrenoceptor using [^35S]GTPγS and cAMP functional assays” European Journal of Pharmacology 2001, 411, 211-221). For the purposes of the present invention, a compound is defined to be a specific or at least functionally selective agonist of the α2C receptor subtype if the compound's efficacy at the α2C receptor is ≧30% Emax (GTPγS assay) and its efficacy at the α2A receptor is 35% Emax (GTPγS assay). Additionally, for the purposes of this invention, a compound is defined to be an antagonist of the α2C receptor subtype if the compound's efficacy at the α2C receptor is <30% Emax (GTPγS assay) and the Ki at the α2C receptor subtype was <500 nM, preferentially <200 nM, and most preferentially <20 nM.
row,SMILES,Ki [nM]
1,NC1=N[C@]2(CCc3cccc(-c4cncnc4)c3C2)CO1 [Compound 149],< 200
2,NC1=NC2(CCc3ccc(-c4cccnn4)cc3C2)CO1 (racemic) [(±)-11],< 200
3,NC1=NC2(CO1)Cc1ccc(-c3cncnc3)cc1C2 (racemic) [(±)-8],< 200
4,NC1=NC2(CCO1)CCc1c(cccc1-c1cncnc1)C2 (racemic) [(±)-57],< 200
5,CN(C)c1ncc(-c2cccc3c2CC2(CC3)COC(N)=N2)cn1 (racemic) [(±)-3],< 200
6,NC1=N[C@@]2(CCc3c(cccc3-c3cccnc3)C2)CO1 [Compound 21K],< 200
7,NC1=NC2(CCc3cccc(-c4ccccc4)c3C2)CO1 (racemic) [(±)-1G],< 200
8,NC1=N[C@@]2(CCc3c(cccc3-c3ccoc3)C2)CO1 [Compound 21I],< 200
9,NC1=N[C@]2(CCc3cc(Br)ccc3C2)CO1 (racemic) [(±)-340],< 200
10,NC1=N[C@]2(CCc3c(cccc3-c3cncs3)C2)CO1 [Compound 119],< 200
11,NC1=N[C@@]2(CCc3cccc(-c4ccccc4)c3C2)CO1 [Compound 143],< 200
12,Cc1noc(C)c1-c1cccc2c1CC1(COC(N)=N1)C2 (racemic) [(±)-50M],< 200
13,Cc1ccncc1-c1cccc2c1C[C@]1(CC2)COC(N)=N1 [Compound 150],< 200
14,NC1=NC2(CO1)Cc1cccc(-c3cn[nH]c3)c1C2 (racemic) [(±)-50K],< 200
15,Cc1n[nH]c(C)c1-c1cccc2c1CC1(COC(N)=N1)C2 (racemic) [(±)-50L],< 200
16,COc1ccc(-c2cncnc2)c2c1CCC1(COC(N)=N1)C2 (racemic) [(±)-16],< 200
17,COc1cncc(-c2cccc3c2CC2(CC3)COC(N)=N2)c1 (racemic) [(±)-112],< 200
18,Cn1nccc1-c1ccc2c(c1)CC1(COC(N)=N1)C2 (racemic) [(±)-8R],< 200
19,Cn1nccc1-c1cccc2c1CC1(CC2)COC(N)=N1 (racemic) [(±)-6L],< 200

row,SMILES,Ki [nM]
1,NC1=NC2(CO1)Cc1ccc(-c3cccnc3)cc1C2 (racemic) [(±)-8I],< 200
2,NC1=N[C@@]2(CCc3c(cccc3-c3ccco3)C2)CN1 [Compound 238],< 200
3,Cc1n[nH]c(C)c1-c1ccc2c(c1)CC1(CC2)COC(N)=N1 (racemic) [(±)-101],< 200
4,Cc1noc(C)c1-c1ccc2c(c1)CC1(COC(N)=N1)C2 (racemic) [(±)-8S],< 200
5,NC1=NC2(CO1)Cc1ccc(-c3ccccc3)cc1C2 (racemic) [(±)-8E],< 200
6,Cc1noc(C)c1-c1cccc2c1CC1(CC2)COC(N)=N1 (racemic) [(±)-113],< 200
7,Cc1ncnc(C)c1-c1ccc2c(c1)CC1(CC2)COC(N)=N1 (racemic) [(±)-10B],< 200
8,Cn1nccc1-c1cccc2c1CC[C@]1(COC(N)=N1)C2 [Compound 21J],< 200
9,CC1=N[C@@]2(CCc3c(cccc3-c3cncnc3)C2)CN1 [Compound 213],< 200
10,N#Cc1ccc(-c2cccc3c2CC2(CC3)COC(N)=N2)cc1 (racemic) [(±)-6K],< 200
11,Cc1ccncc1-c1cccc2c1C[C@@]1(CC2)COC(N)=N1 [Compound 151],< 200
12,N#Cc1cccc(-c2cccc3c2CC2(CC3)COC(N)=N2)c1 (racemic) [(±)-6J],< 200
13,COc1ncc(-c2cccc3c2CCC2(COC(N)=N2)C3)cn1 (racemic) [(±)-133],< 200
14,CC1CC2(COC(N)=N2)Cc2cccc(-c3cncnc3)c21 (racemic) [(±)-58],< 200
15,Cc1n[nH]c(C)c1-c1cccc2c1CC1(CC2)COC(N)=N1 (racemic) [(±)-114],< 200
16,NC1=NC2(CCc3c(cccc3-c3cncs3)C2)CO1 (racemic) [(±)-129],< 200
17,NC1=N[C@@]2(CCc3cccc(-c4cccnc4)c3C2)CO1 [Compound 145],< 200
18,NC1=N[C@@]2(CCc3ccc(-c4cncnc4)cc3C2)CO1 [Compound 142],< 200
